Experimental data taken from ChEMBL document CHEMBL4257493, “Discovery of 7-hydroxyaporphines as conformationally restricted ligands for beta-1 and beta-2 adrenergic receptors” (Medchemcomm, 2018).

Target: Beta-2 adrenergic receptor (Homo sapiens, UniProt P07550)
Test: Displacement of [3H]-CGP-12177 from human beta2-adrenergic receptor

Sequence of Beta-2 adrenergic receptor (P07550 whole entry): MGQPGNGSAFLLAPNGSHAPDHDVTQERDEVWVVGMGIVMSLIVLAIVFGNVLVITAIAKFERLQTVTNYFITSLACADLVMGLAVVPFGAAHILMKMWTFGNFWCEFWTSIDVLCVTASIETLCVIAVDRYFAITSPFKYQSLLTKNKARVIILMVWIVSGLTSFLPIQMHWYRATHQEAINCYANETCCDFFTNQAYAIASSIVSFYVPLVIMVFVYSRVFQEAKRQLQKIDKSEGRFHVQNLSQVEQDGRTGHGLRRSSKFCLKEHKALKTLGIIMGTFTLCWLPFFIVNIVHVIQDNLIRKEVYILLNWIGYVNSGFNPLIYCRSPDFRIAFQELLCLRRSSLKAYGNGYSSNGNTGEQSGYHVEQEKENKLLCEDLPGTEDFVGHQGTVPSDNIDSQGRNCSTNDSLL

## COc1cc2c3c(c1OC)-c1ccccc1[C@@H](O)[C@H]3NCC2
  IC50: 210 nM
